Measurements reported in ChEMBL document CHEMBL3867477 (Bioorg Med Chem Lett, 2016).
≈ marks a conversion by molar mass, not a printed value. Each block holds one compound with its values, some of them ahead of it.

Assays:
[1] = biological target: Sodium channel protein type 5 subunit alpha (Homo sapiens, UniProt Q14524); assay: Inhibition of Nav1.5 (unknown origin)
[2] = biological target: Voltage-dependent L-type calcium channel subunit alpha-1C (Homo sapiens, UniProt Q13936); assay: Inhibition of Cav1.2 (unknown origin)
[3] = Displacement of (2S)-N-(2-phenylphenyl)-1-[2-[1-(tritritiomethyl)benzimidazol-2-yl]sulfanylacetyl]pyrrolidine-2-carboxamide from human OX1 receptor Ile408-Val mutant expressed on CHO cell membrane measured after 3 hrs by TopCount method; assay type: cell membranes
Orexin receptor type 2 [4] = biological target: T1, Orexin receptor type 2 (Homo sapiens, UniProt O43614); assay: Displacement of (2S)-N-(2-pyrrol-1-ylphenyl)-1-[2-[1-(tritritiomethyl)benzimidazol-2-yl]sulfanylacetyl]pyrrolidine-2-carboxamide from human OX2 receptor expressed on CHO cell membrane measured after 3 hrs by TopCount method; assay type: cell membranes
T1 sequence (O43614 whole entry): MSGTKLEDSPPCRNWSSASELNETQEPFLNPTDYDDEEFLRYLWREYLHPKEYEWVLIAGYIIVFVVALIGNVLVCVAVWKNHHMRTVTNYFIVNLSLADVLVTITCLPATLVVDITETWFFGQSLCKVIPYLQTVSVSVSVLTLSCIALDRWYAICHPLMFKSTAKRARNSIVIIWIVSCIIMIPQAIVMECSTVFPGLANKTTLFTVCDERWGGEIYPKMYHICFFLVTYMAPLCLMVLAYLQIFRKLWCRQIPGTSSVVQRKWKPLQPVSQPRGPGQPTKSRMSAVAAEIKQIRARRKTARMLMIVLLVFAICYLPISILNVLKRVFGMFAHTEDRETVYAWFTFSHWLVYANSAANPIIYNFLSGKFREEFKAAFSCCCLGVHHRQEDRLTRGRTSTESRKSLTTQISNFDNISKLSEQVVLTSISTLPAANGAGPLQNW

CHO = assay: Selectivity index, ratio of Ki for human OX2 receptor expressed on CHO cell membrane to Ki for Ile408-Val variant human OX1 receptor expressed on CHO cell membrane; assay type: cell-based
[5] = Aqueous solubility of the compound at pH 2; assay type: physicochemical; details: aqueous medium
[6] = Aqueous solubility of the compound at pH 7; assay type: physicochemical; details: aqueous medium
[7] = Intrinsic clearance in dog liver microsomes; assay type: ADME, Canis lupus familiaris; details: read-out: CLH
Orexin receptor type 2 [8] = biological target: T2, Orexin receptor type 2 (Rattus norvegicus, UniProt P56719); assay type: functional
T2 sequence (P56719 whole entry): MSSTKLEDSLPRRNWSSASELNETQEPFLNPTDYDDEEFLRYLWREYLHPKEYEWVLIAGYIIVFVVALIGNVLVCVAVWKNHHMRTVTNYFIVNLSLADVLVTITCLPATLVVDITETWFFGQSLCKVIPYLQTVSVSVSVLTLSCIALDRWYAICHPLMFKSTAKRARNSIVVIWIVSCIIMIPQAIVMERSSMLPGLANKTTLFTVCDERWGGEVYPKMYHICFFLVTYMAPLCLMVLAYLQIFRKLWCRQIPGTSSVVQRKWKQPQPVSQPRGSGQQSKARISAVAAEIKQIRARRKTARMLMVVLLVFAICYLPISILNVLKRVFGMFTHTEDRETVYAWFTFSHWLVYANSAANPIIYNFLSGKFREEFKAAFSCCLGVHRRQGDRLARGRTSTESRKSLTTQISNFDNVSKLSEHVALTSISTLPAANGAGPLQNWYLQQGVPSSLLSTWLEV
Description: Antagonist activity at rat OX2 receptor assessed as inhibition of Ala-6,12 orexin-A-induced calcium increase preincubated for 5 mins prior to Ala-6,12 orexin-A addition measured at 1 sec intervals for 1 min by Fluo-4AM dye-based FLIPR assay

[9] = Intrinsic clearance in rat liver microsomes; assay type: ADME; details: read-out: CLH
[10] = Intrinsic clearance in human liver microsomes; assay type: ADME; details: read-out: CLH
[11] = Selectivity index, ratio of IC50 for human OX1 receptor to IC50 for rat OX1 receptor
[12] = Oral bioavailability in rat at 10 mg/kg; assay type: ADME, organism-based; details: in vivo
[13] = Clearance in rat at 2 mg/kg, iv; assay type: ADME, organism-based; details: in vivo
[14] = Protein binding in dog plasma; assay type: ADME, cell-free, Canis lupus familiaris; details: read-out: PPB (converted)
[15] = biological target: T3, Orexin/Hypocretin receptor type 1 (Rattus norvegicus, UniProt P56718); assay: Antagonist activity at rat OX1 receptor assessed as inhibition of Ala-6,12 orexin-A-induced calcium increase preincubated for 5 mins prior to Ala-6,12 orexin-A addition measured at 1 sec intervals for 1 min by Fluo-4AM dye-based FLIPR assay; assay type: functional
T3 sequence (P56718 whole entry): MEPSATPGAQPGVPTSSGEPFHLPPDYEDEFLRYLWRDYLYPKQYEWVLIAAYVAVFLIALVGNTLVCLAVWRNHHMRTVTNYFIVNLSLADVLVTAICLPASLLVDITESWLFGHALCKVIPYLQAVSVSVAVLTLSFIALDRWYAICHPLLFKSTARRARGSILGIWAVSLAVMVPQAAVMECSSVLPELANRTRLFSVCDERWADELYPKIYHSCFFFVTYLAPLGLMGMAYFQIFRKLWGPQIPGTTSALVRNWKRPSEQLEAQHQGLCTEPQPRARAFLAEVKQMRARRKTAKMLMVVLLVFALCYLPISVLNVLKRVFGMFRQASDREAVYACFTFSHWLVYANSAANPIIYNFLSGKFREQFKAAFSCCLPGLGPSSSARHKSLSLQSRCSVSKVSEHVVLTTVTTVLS

[16] = Antagonist activity at human OX1 receptor Ile408-Val mutant expressed on CHO cell membrane assessed as inhibition of Ala-6,12 orexin-A-induced calcium increase preincubated for 5 mins prior to Ala-6,12 orexin-A addition measured at 1 sec intervals for 1 min by Fluo-4AM dye-based FLIPR assay
Orexin receptor type 2 [17] = biological target: T1, Orexin receptor type 2; assay type: functional, cell-based, CHO
Description: Antagonist activity at human OX2 receptor expressed on CHO cell membrane assessed as inhibition of Ala-6,12 orexin-A-induced calcium increase preincubated for 5 mins prior to Ala-6,12 orexin-A addition measured at 1 sec intervals for 1 min by Fluo-4AM dye-based FLIPR assay

Rattus norvegicus = species: Rattus norvegicus; assay: Selectivity index, ratio of IC50 for rat OX2 receptor to IC50 for rat OX1 receptor
[18] = Protein binding in human plasma; assay type: ADME, cell-free; details: read-out: PPB (converted)
[19] = Intrinsic clearance in rhesus monkey liver microsomes; assay type: ADME, Macaca mulatta; details: read-out: CLH
[20] = Half life in rat at 2 mg/kg, iv or 10 mg/kg, po; assay type: ADME, organism-based; details: in vivo
[21] = Clearance in dog at 0.5 mg/kg, iv or 10 mg/kg, po; assay type: ADME, organism-based, Canis lupus familiaris; details: in vivo
[22] = Half life in dog at 0.5 mg/kg, iv or 10 mg/kg, po; assay type: ADME, organism-based, Canis lupus familiaris; details: in vivo
[23] = Oral bioavailability in dog at 3 mg/kg; assay type: ADME, organism-based, Canis lupus familiaris; details: in vivo
[24] = Clearance in rhesus monkey at 2 mg/kg, iv or 10 mg/kg, po; assay type: ADME, organism-based, Macaca mulatta; details: in vivo
[25] = Half life in rhesus monkey at 2 mg/kg, iv or 10 mg/kg, po; assay type: ADME, organism-based, Macaca mulatta; details: in vivo
[26] = Oral bioavailability in rhesus monkey at 10 mg/kg; assay type: ADME, organism-based, Macaca mulatta; details: in vivo
[27] = Apparent permeability of the compound; assay type: ADME; details: not told
[28] = Protein binding in rat plasma; assay type: ADME, cell-free; details: read-out: PPB (converted)
[29] = Protein binding in rhesus monkey plasma; assay type: ADME, cell-free, Macaca mulatta; details: read-out: PPB (converted)
[30] = biological target: T4, Orexin/Hypocretin receptor type 1 (Homo sapiens, UniProt O43613); assay: Binding affinity to OX1 receptor (unknown origin)
T4 sequence (O43613 whole entry): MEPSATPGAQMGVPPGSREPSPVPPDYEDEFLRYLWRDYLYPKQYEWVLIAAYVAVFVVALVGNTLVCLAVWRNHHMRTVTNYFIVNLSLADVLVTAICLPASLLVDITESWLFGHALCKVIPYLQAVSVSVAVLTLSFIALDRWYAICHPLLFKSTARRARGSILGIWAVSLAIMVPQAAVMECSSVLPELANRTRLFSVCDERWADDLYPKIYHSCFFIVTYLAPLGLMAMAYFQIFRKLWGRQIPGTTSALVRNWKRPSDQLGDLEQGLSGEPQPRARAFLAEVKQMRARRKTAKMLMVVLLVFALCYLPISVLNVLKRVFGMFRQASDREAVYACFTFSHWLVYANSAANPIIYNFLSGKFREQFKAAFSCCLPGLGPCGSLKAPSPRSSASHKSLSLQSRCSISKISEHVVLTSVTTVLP

[31] = biological target: T5, Orexin/Hypocretin receptor type 1 (Homo sapiens) (UniProt O43613); assay: Binding affinity to OX1 receptor (unknown origin) assessed as association rate constant
T5 sequence (whole entry): T4 sequence (O43613 whole entry)

[32] = biological target: T5, Orexin/Hypocretin receptor type 1 (Homo sapiens); assay: Binding affinity to OX1 receptor (unknown origin) assessed as dissociation rate constant
[33] = Drug metabolism in rat liver microsomes assessed as oxidation of banzamide; assay type: ADME
[34] = Solubility of the compound; assay type: physicochemical
[35] = biological target: T5, Orexin/Hypocretin receptor type 1 (Homo sapiens); assay: Potency index, ratio of PE8 Ki to compound Ki for human OX1 receptor

Chain of Sodium channel protein type 5 subunit alpha (Q14524 whole entry): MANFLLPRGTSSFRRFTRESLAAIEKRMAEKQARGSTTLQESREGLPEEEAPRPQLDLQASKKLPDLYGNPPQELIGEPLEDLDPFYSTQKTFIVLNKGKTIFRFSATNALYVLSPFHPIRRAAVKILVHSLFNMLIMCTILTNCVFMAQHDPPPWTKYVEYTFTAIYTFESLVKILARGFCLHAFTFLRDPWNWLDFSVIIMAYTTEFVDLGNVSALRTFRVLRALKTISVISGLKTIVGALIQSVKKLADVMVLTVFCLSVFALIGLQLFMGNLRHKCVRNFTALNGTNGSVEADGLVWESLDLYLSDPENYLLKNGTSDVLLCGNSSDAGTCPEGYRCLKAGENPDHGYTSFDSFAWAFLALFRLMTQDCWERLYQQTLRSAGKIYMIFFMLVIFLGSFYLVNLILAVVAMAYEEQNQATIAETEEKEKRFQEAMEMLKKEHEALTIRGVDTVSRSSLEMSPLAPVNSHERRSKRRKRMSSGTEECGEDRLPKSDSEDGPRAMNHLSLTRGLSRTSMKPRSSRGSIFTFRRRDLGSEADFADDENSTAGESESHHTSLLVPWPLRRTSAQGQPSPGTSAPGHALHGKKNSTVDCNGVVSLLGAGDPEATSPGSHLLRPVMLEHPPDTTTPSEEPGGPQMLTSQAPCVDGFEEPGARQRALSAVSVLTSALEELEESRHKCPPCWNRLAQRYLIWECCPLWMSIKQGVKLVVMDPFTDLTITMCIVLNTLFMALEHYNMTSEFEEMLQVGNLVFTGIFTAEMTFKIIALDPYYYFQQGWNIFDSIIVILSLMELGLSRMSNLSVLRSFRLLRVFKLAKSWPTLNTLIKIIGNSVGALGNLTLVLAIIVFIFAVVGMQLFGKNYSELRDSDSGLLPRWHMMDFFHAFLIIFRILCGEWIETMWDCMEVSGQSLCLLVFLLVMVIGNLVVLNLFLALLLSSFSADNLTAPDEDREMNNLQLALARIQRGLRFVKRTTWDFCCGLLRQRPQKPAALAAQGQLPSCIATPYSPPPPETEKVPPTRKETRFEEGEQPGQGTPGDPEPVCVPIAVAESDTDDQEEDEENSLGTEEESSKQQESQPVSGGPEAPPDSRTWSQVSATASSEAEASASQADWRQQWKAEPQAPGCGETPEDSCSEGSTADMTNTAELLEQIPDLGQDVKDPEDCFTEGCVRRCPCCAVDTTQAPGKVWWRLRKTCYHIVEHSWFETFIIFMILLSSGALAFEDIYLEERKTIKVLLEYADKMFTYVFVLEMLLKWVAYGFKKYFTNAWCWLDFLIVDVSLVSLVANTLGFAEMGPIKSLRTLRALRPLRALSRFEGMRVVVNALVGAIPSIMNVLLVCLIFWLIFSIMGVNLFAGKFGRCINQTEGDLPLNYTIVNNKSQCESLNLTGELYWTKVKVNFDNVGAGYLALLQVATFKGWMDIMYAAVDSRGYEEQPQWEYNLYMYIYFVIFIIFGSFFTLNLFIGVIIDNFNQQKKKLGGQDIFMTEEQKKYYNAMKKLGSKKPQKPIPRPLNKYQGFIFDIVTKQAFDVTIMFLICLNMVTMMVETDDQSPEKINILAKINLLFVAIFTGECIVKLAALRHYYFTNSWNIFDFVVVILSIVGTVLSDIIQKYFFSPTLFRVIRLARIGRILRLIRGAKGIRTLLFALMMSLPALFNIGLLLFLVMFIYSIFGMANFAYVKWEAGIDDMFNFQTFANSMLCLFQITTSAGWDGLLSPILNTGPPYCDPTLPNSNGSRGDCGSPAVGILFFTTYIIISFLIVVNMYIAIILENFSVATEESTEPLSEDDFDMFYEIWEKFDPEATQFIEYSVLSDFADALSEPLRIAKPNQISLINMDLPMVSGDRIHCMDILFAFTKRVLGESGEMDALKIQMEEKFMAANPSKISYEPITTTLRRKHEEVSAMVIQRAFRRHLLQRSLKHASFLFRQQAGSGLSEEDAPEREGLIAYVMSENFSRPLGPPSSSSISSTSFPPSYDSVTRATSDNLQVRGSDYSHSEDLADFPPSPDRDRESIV
Chain of Voltage-dependent L-type calcium channel subunit alpha-1C (Q13936 whole entry): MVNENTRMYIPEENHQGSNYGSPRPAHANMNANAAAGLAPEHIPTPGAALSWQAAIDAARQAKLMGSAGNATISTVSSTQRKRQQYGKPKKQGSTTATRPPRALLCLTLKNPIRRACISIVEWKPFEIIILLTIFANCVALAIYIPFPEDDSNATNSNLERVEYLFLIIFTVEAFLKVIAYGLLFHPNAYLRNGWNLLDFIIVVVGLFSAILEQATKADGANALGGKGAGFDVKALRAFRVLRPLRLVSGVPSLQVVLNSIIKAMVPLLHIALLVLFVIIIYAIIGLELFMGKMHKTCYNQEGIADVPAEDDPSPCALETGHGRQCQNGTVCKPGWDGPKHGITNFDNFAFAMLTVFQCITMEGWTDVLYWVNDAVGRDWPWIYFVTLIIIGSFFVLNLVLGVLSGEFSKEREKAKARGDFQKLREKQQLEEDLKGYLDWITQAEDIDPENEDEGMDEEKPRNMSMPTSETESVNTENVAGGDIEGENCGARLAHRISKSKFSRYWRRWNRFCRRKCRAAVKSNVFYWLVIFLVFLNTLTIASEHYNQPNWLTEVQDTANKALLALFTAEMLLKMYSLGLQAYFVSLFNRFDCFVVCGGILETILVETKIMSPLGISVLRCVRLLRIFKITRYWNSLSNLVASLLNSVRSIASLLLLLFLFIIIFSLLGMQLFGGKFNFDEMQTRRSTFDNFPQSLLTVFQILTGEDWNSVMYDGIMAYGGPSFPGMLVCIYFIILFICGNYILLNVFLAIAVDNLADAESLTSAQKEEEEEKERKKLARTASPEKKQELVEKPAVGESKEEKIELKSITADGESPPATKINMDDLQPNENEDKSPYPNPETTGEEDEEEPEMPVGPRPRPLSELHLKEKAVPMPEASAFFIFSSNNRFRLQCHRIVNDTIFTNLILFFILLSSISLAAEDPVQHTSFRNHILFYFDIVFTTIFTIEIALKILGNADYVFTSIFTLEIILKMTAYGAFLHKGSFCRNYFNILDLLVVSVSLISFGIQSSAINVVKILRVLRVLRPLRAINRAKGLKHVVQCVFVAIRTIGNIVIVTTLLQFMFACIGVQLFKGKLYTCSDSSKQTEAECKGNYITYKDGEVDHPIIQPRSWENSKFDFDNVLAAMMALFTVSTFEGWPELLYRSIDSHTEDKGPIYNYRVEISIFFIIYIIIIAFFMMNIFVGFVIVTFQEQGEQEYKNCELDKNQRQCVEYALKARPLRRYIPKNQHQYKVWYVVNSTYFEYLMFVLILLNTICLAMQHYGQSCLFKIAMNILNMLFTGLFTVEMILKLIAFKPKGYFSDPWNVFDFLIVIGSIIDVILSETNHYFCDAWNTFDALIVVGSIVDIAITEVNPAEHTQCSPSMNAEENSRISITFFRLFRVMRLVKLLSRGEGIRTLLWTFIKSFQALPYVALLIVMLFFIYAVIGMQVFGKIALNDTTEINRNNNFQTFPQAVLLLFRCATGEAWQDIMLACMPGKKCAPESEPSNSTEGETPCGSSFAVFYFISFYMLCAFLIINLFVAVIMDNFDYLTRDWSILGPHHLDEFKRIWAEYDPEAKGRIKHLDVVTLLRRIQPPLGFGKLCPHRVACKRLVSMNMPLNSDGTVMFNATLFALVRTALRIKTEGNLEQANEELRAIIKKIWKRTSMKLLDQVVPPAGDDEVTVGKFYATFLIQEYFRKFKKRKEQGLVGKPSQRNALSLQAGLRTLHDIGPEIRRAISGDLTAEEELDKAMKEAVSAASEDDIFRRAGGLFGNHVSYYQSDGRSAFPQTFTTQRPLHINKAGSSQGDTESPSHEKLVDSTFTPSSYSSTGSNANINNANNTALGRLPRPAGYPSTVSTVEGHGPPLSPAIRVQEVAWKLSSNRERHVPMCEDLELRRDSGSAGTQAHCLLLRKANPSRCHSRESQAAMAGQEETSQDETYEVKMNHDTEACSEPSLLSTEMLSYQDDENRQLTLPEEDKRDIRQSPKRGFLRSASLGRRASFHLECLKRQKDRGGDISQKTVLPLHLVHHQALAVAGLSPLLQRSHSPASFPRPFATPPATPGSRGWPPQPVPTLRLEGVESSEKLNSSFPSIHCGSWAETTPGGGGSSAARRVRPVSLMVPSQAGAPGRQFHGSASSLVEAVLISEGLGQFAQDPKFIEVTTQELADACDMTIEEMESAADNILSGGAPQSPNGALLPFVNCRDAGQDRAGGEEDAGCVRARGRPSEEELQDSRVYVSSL

- Ki (Orexin receptor type 2 [4]): 1.56 µM
- solubility [5]: > 150 µM
- solubility [6]: > 150 µM
Structure (SMILES): O=C(c1ccnc2[nH]ccc12)N1CCC(F)(F)[C@@H](Oc2ccc3ccccc3n2)C1
- inhibition (INH) [1]: Active
- inhibition (INH) [2]: Active
- Ki [3]: 0.0025 µM
- Ratio Ki (CHO): 626

- Ki (Orexin receptor type 2 [4]): 0.521 µM
- solubility [5]: > 150 µM
- solubility [6]: > 150 µM
Structure (SMILES): O=C(c1nccc2[nH]ccc12)N1CCC(F)(F)[C@@H](Oc2ccc3ccccc3n2)C1
- inhibition (INH) [1]: Active
- inhibition (INH) [2]: Active
- Ki [3]: 0.0016 µM
- Ratio Ki (CHO): 325

- CLint scaled [9]: 1200 mL/min/kg
- bioavailability [12]: < 1%
- clearance [13]: 81 mL/min/kg
- Ki (Orexin receptor type 2 [4]): 4.31 µM
- solubility [34]: Soluble
- Drug metabolism [33]: Metabolite_Detected
Structure (SMILES): O=C(c1cccc(-n2ccnn2)c1)N1CCC(F)(F)[C@@H](Oc2ccc3ccccc3n2)C1
- Ki [3]: 0.0035 µM
- Ratio Ki (CHO): 1230

- Ratio Ki [35]: 2
- Ki (Orexin receptor type 2 [4]): 0.271 µM
Structure (SMILES): O=C(c1ccccc1-n1cccn1)N1CCC(F)(F)[C@@H](Oc2ccc3ccccc3n2)C1
- Ki [3]: 0.00048 µM
- Ratio Ki (CHO): 564

The next lines start with the compound.

Structure (SMILES): O=C(c1nccc2[nH]cnc12)N1CCC(F)(F)[C@@H](Oc2ccc3ccccc3n2)C1
- CLint scaled [7]: < 75 mL/min/kg
- IC50 (Orexin receptor type 2 [8]): > 10 µM
- CLint scaled [9]: 267 mL/min/kg
- CLint scaled [10]: 55 mL/min/kg
- Ratio IC50 [11]: 3 to 4
- bioavailability [12]: 22%
- clearance [13]: 45 mL/min/kg
- fraction unbound [14]: 0.2
- IC50 [15]: 0.016 µM
- Ki [3]: 0.0052 µM
- Ki (Orexin receptor type 2 [4]): 2.14 µM
- Ratio Ki (CHO): 411
- IC50 [16]: 0.058 µM
- IC50 (Orexin receptor type 2 [17]): > 10 µM
- Ratio IC50 (Rattus norvegicus): > 625
- solubility [5]: 192 µM (≈ 78.6 µg/mL)
- solubility [6]: 182 µM (≈ 74.5 µg/mL)
- fraction unbound [18]: 0.14
- CLint scaled [19]: 189 mL/min/kg
- half-life [20]: 3.2 h
- clearance [21]: 12 mL/min/kg
- half-life [22]: 1 h
- bioavailability [23]: 63%
- clearance [24]: 25 mL/min/kg
- half-life [25]: 2 h
- bioavailability [26]: 16%
- Papp [27]: 33 ×10⁻⁶ cm/s
- fraction unbound [28]: 0.17
- fraction unbound [29]: 0.16
- Kd [30]: 0.00474 µM
- K [31]: 4.43 ×10⁷ /M/s
- K [32]: 0.21 s⁻¹
- Drug metabolism [33]: Metabolite_Notdetected

Structure (SMILES): O=C(c1cccc2[nH]ccc12)N1CCC(F)(F)[C@@H](Oc2ccc3ccccc3n2)C1
- Ki [3]: 0.0005 µM
- Ki (Orexin receptor type 2 [4]): 0.12 µM
- Ratio Ki (CHO): 240
- solubility [6]: 13 µM (≈ 5.3 µg/mL)

Structure (SMILES): O=C(c1cccc2[nH]ncc12)N1CCC(F)(F)[C@@H](Oc2ccc3ccccc3n2)C1
- CLint scaled [9]: 761 mL/min/kg
- clearance [13]: 87.5 mL/min/kg
- Ki [3]: 0.0026 µM
- Ki (Orexin receptor type 2 [4]): > 1.93 µM
- Ratio Ki (CHO): > 744
